# Assay results as given in PMC4492822 (EMBO Molecular Medicine, 2015).
# Columns and labels:
# [1] = tested on: A549, H1299, H23, and H460; assay: MTS viability assay, 72 h, lines with high DDX3 expression; format: cell-based; conditions: range over A549, H1299, H23, H460
# Procedure: Proliferation was determined by counting cancer cells over time. Cells were seeded at 7.5 × 10^4 cells/well and counted daily with a TC10 automated cell counter (Bio-Rad, Hercules, CA, USA) at least three times. Viability of cancer cells was determined by MTS assay (CellTiter 96® AQueous One Solution, Promega, Madison, WI, USA) as described by the manufacturer. Briefly, 800–2,000 cells were allowed to attach overnight in a 96-well plate, treated with different concentrations of RK-33 and kept for 72 h. MTS reagent was kept for 2 h. Each experiment was repeated a minimum of three independent times.
# [2] = tested on: A549 human lung cancer cells; assay: Orthotopic A549 lung cancer model with radiation; format: in vivo, athymic NCr-nu/nu mice; conditions: i.p. RK-33 with radiation, schedule as Fig6C
# Procedure: Athymic NCr-nu/nu female mice 4–5 weeks old were purchased from NCI Frederick. A total of 1 × 10^6 A549 cells were injected in the tail vein of ten mice. Treatment (five animals per group) was started 4 weeks after inoculation of tumor cells. Since tumor volumes could not be determined by micro-CT, tumor burden was established at necropsy by histopathology, 8 weeks after inoculation of tumor cells. All five lung lobes were paraffin-embedded and mid-lung sections were stained with H&E. Slides were digitalized; lung and tumor surface area was calculated with ImageScope (Aperio Technologies, Vista, CA, USA), as tumor burden = tumor surface/lung surface.
# Cells were irradiated at room temperature with 0.5 Gy/min to the desired dose using a Gammacell 40 ^137Cs irradiator. For in vivo experiments, mice were treated using the Small Animal Radiation Research Platform (Wong et al, [2008]). The tumors were irradiated with a circular beam of 1 cm diameter.
# [3] = tested on: Twist1/Kras^G12D lung tumors; assay: Twist1/KrasG12D lung tumor model, fractionated radiation (10 fractions of 3 Gy); format: in vivo, mouse; conditions: 3 weeks following treatment
# Procedure: Inducible Twist1/Kras^G12D transgenic mice in the FVB/N inbred background were of the genotype: CCSP-rtTA/tetO-KrasG12D/Twist1-tetO-luc (Tran et al, [2012]). All the mice were weaned 3–4 weeks of age and then placed on dox at 4–6 weeks of age. Mice were treated with similar levels of tumor burden per micro-CT and were typically 20–30 weeks old. Mice were treated as in Fig6C and H. Each group consisted of mice, of which multiple index tumors were followed in time by micro-CT and quantified by a board-certified radiation oncologist (JZ) in a blinded fashion. Bi-dimensional measurements were made on tumors using serial examinations and tumor volumes calculated using the equation Volume = π/6 × 1.65 (length × width) × 3/2. Volumes were normalized to the starting volume, t = 0 before treatment. For 15-Gy SABR experiments, the breakdown of animal usage is (1) RT = 3 female mice, (2) RK-33 = 3 females and 1 male mice, (3) carboplatin = 3 male mice, (4) RT + carboplatin = 3 female mice, and (5) RT + RK-33 = 5 female mice. […]
# The mice underwent micro-CT imaging by use of the Small Animal Radiation Research Platform (SARRP) irradiator described earlier (Wong et al, [2008]). […] Tumor volumes were quantified from the CT dataset with Pinnacle3 software v.8.1y (Philips Inc, Madison, WI) as described previously (Tran et al, [2011]; Zeng et al, [2013]). […]
# [4] = tested on: H1299 cells; assay: Cell cycle analysis by flow cytometry; format: cell-based; conditions: 0, 2, 4, and 6 μM, dose-dependent
# Procedure: A549 and H1299 cells were plated at 1 × 10^5 cells per well of a 6-well plate. Cell cycle was carried out as previously described (Vesuna et al, [2012]). Briefly, cells were trypsinized 24 h after plating and fixed in 70% ethanol overnight at −20°C. Fixed cells were washed with PBS and resuspended in DNA-staining solution (5 μg/ml propidium iodide, 0.5 mg/ml RNase A) for 1 h at room temperature. Cell cycle acquisition was performed on a FACScan I or FACSCalibur instrument (BD Biosciences, San Jose, CA, USA). Independent experiments were repeated three times. Data were analyzed using FlowJo software (Tree Star Inc., Ashland, OR, USA).
# [5] = tested on: A549; assay: Annexin V / PI flow cytometry, 72 h; format: cell-based, human
# Procedure: Histograms depicting early apoptosis (Annexin V positive) and late apoptosis (PI positive) in cells treated with the indicated amounts of RK-33. Cells were either treated with DMSO (controls) or IC50 and IC75 amounts of RK-33. After 72 hours incubation, cells were harvested and stained for Annexin V and PI and analyzed by flow cytometry.
# [6] = tested on: H1299.EJ cells; assay: Non-homologous end-joining reporter assay; format: cell-based; conditions: 4–6 μM
# Procedure: NHEJ was assessed by the functional reporter system H1299-EJ, provided by E Dikomey. […] When these sites are incised by I-SceI, the artificial start codon is removed creating a DSB. Repair of this DSB by NHEJ restores GFP expression, so that cells capable for NHEJ can be identified by their GFP fluorescence intensity (Kriegs et al, [2010]). H1299.EJ cells were plated in a 6-well plate (1 × 10^5 cell/well) and treated with 4–6 μM RK-33. The following day, cells were transfected (in duplicates) with 1–2 μg of pSceI or pEGFP construct using TransIT-LT1 (Mirus, Madison, WI, USA) in serum-free media (Opti-MEM, Invitrogen, Carlsbad, CA, USA). Media was replaced after 4–6 h with complete media. Subsequently, cells were harvested by trypsinization, washed in PBS, and resuspended in 0.5 ml PBS. NHEJ activity was measured on a FACScan I instrument and analyzed on FlowJo software. Recombination frequency was calculated as ((% pSceI − % negative control) / % pEGFP). H1299-DR-GFP cells, provided by RG Bristow, were used to measure homologous recombination similarly as described above (Chan et al, [2008]).
substance,measurement,setting,value
"diimidazo[4,5-d:4′,5′-f]-[1,3]diazepine [RK-33]",IC50,[1],4.4 to 8.4 µM
same,enhancement of radiation-induced tumor regression (tumor burden),[2],2.6 fold
same,"decrease in tumor growth, RK-33 and radiation versus radiation",[3],not significant
same,cell cycle effect,[4],G1 arrest
same,cells in gate of Annexin V/PI plot,"[5]; 9 uM, first (upper) value of panel",81.7
same,cells in gate of Annexin V/PI plot,"[5]; 9 uM, second value of panel",4.44
same,cells in gate of Annexin V/PI plot,"[5]; 9 uM, third (lowest) value of panel",4.73
same,cells in gate of Annexin V/PI plot,"[5]; 10.5 uM, first (upper) value of panel",85.3
same,cells in gate of Annexin V/PI plot,"[5]; 10.5 uM, second value of panel",5.99
same,cells in gate of Annexin V/PI plot,"[5]; 10.5 uM, third (lowest) value of panel",2.26
same,reduction of NHEJ,[6],38%
